Several values for one entry are separate records, joined by “and”; a condition that tells them apart may be missing. Equal entries are not always repeated. Activity calls are given as the source filed them. No cut-off for these calls is given here.
Experiments:
[1] = molecular target: Non-receptor tyrosine-protein kinase TNK1 (Homo sapiens) (UniProt Q13470); experiment: Inhibition of human TNK1 assessed as percent of control at 2000 nM by KINOMEscan assay relative to control; parameters: scale not given: the % may be the effect or the level left
Non-receptor tyrosine-protein kinase TNK1 (Homo sapiens), sequence (Q13470 whole entry, canonical isoform): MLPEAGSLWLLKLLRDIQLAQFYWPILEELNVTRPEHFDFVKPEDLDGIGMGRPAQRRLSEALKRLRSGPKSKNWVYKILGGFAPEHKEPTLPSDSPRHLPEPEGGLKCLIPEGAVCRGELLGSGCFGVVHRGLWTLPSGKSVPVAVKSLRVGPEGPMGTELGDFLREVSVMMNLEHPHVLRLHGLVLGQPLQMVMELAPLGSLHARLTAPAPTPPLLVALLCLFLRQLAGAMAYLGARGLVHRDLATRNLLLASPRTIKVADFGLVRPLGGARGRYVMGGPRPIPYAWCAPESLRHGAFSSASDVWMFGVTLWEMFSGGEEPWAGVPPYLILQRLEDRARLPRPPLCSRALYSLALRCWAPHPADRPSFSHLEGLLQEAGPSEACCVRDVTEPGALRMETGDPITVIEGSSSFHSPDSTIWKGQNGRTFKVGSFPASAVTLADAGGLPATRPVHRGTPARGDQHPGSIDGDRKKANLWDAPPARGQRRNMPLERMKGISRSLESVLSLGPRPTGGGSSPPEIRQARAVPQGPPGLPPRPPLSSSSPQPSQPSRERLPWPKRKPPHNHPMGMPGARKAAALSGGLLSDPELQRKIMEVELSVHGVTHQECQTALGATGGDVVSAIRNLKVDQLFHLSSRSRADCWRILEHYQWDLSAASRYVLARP

[2] = tested on: Phosphatidylinositol 4,5-bisphosphate 3-kinase catalytic subunit alpha isoform (Homo sapiens), P42336 [Q546K]; experiment: Inhibition of human PIK3CA Q546K mutant assessed as percent of control at 2000 nM by KINOMEscan assay relative to control; parameters: scale not given: the % may be the effect or the level left
[3] = molecular target: Tyrosine-protein kinase receptor Tie-1 (Homo sapiens) (UniProt P35590); experiment: Inhibition of human TIE1 assessed as percent of control at 2000 nM by KINOMEscan assay relative to control; parameters: scale not given: the % may be the effect or the level left
[4] = molecular target: Protein-tyrosine kinase 2-beta (Homo sapiens) (UniProt Q14289); experiment: Inhibition of human PYK2 assessed as percent of control at 2000 nM by KINOMEscan assay relative to control; parameters: scale not given: the % may be the effect or the level left
[5] = molecular target: Tyrosine-protein kinase JAK1 (Homo sapiens) (UniProt P23458); experiment: Inhibition of human JAK1 JH1 catalytic domain assessed as percent of control at 2000 nM by KINOMEscan assay relative to control; parameters: scale not given: the % may be the effect or the level left
Tyrosine-protein kinase JAK1 (Homo sapiens), sequence (P23458 whole entry, the tested form may be a part): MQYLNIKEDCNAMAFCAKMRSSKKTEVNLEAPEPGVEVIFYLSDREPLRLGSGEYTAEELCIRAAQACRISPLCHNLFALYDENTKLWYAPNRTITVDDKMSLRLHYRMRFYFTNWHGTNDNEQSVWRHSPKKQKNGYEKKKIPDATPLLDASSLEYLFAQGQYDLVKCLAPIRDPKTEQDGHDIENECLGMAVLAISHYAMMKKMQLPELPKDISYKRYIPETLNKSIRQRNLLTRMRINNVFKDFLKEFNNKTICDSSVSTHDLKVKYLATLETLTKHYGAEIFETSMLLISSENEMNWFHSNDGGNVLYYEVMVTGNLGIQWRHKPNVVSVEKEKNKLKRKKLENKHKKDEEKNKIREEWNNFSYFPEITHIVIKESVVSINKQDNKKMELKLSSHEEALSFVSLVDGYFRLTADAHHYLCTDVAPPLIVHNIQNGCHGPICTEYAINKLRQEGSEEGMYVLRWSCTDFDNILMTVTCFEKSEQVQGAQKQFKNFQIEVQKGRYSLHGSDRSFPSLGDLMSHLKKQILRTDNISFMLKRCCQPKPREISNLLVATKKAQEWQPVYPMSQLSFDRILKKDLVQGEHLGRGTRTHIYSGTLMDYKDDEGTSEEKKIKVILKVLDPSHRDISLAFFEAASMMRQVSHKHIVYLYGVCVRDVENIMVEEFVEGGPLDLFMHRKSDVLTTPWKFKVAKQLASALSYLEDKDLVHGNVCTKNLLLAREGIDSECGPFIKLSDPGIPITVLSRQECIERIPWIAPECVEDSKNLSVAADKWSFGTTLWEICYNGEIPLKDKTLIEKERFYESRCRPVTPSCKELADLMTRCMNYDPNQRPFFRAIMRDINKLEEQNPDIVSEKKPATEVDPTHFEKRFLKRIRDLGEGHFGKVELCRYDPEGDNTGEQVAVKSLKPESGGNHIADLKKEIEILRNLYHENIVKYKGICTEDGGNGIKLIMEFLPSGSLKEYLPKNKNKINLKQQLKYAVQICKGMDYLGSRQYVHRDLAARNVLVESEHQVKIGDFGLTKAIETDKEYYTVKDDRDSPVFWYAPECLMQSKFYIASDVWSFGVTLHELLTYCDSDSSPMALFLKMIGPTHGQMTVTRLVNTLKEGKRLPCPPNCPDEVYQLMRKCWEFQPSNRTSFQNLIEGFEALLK

[6] = molecular target: Ephrin type-A receptor 6 (Homo sapiens) (UniProt Q9UF33); experiment: Inhibition of human EPHA6 assessed as percent of control at 2000 nM by KINOMEscan assay relative to control; parameters: scale not given: the % may be the effect or the level left
[7] = molecular target: Beta-adrenergic receptor kinase 1 (Homo sapiens) (UniProt P25098); experiment: Inhibition of human GRK2 assessed as percent of control at 2000 nM by KINOMEscan assay relative to control; parameters: scale not given: the % may be the effect or the level left
[8] = tested on: Receptor-type tyrosine-protein kinase FLT3 (Homo sapiens), P36888 [N841I]; experiment: Inhibition of human FLT3 N841I mutant assessed as percent of control at 2000 nM by KINOMEscan assay relative to control; parameters: scale not given: the % may be the effect or the level left
[9] = molecular target: Tyrosine-protein kinase JAK1 (Homo sapiens) (UniProt P23458); experiment: Inhibition of human JAK1 JH2 pseudokinase domain assessed as percent of control at 2000 nM by KINOMEscan assay relative to control; parameters: scale not given: the % may be the effect or the level left
[10] = molecular target: Cyclin-dependent kinase 8/19 (Homo sapiens, UniProt P49336+Q9BWU1); conditions: ST-2
Description: Inhibition of CDK8/CDK19 in ST2 cells by alkaline phosphatase activity assay

[11] = molecular target: Receptor-type tyrosine-protein kinase FLT3 (Homo sapiens) (UniProt P36888); experiment: Inhibition of human autoinhibited FLT3 assessed as percent of control at 2000 nM by KINOMEscan assay relative to control; parameters: scale not given: the % may be the effect or the level left
[12] = molecular target: SRSF protein kinase 2 (Homo sapiens) (UniProt P78362); experiment: Inhibition of human SRPK2 assessed as percent of control at 2000 nM by KINOMEscan assay relative to control; parameters: scale not given: the % may be the effect or the level left
Myc-CaP = experiment: Antitumor activity against murine castration-resistant Myc-CaP cells xenografted in male FVB mouse assessed as suppression of tumor weight; assay type: functional
[13] = molecular target: Dual specificity tyrosine-phosphorylation-regulated kinase 2 (Homo sapiens) (UniProt Q92630); experiment: Inhibition of human DYRK2 assessed as percent of control at 2000 nM by KINOMEscan assay relative to control; parameters: scale not given: the % may be the effect or the level left
Dual specificity tyrosine-phosphorylation-regulated kinase 2 (Homo sapiens), sequence (Q92630 whole entry): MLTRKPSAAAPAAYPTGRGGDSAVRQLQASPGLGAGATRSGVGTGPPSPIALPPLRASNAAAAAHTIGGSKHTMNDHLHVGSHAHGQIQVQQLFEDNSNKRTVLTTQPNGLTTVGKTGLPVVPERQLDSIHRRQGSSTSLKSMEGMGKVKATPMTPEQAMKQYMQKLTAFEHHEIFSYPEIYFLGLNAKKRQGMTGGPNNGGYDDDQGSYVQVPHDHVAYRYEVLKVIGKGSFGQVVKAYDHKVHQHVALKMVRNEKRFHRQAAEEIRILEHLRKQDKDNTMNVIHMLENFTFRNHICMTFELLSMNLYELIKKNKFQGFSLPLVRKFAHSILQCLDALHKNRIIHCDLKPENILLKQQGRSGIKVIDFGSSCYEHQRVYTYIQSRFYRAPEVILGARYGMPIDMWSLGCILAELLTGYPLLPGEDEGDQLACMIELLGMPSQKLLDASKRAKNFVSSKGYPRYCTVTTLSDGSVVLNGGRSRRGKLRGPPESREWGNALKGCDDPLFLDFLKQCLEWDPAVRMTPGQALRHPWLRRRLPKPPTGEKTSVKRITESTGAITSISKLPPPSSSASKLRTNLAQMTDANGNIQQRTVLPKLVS

[14] = molecular target: Death-associated protein kinase 2 (Homo sapiens) (UniProt Q9UIK4); experiment: Inhibition of human DAPK2 assessed as percent of control at 2000 nM by KINOMEscan assay relative to control; parameters: scale not given: the % may be the effect or the level left
Death-associated protein kinase 2 (Homo sapiens), sequence (Q9UIK4 whole entry, looked up): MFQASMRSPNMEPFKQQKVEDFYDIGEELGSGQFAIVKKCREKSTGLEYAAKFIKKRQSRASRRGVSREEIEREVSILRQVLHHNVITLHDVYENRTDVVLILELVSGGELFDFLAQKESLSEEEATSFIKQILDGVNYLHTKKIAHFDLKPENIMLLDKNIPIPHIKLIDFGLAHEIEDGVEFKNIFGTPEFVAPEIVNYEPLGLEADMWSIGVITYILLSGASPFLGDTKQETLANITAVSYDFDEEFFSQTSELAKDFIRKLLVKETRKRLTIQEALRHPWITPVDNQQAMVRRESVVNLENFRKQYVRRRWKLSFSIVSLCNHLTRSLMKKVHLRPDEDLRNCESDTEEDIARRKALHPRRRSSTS

[15] = tested on: Hepatocyte growth factor receptor (Homo sapiens), P08581 [M1250T]; experiment: Inhibition of human MET M1250T mutant assessed as percent of control at 2000 nM by KINOMEscan assay relative to control; parameters: scale not given: the % may be the effect or the level left
[16] = tested on: Phosphatidylinositol 4,5-bisphosphate 3-kinase catalytic subunit alpha isoform (Homo sapiens), P42336 [M1043I]; experiment: Inhibition of human PIK3CA M1043I mutant assessed as percent of control at 2000 nM by KINOMEscan assay relative to control; parameters: scale not given: the % may be the effect or the level left
[17] = molecular target: Cyclin-dependent kinase-like 2 (Homo sapiens) (UniProt Q92772); experiment: Inhibition of human CDKL2 assessed as percent of control at 2000 nM by KINOMEscan assay relative to control; parameters: scale not given: the % may be the effect or the level left
[18] = molecular target: Tyrosine-protein kinase Blk (Homo sapiens) (UniProt P51451); experiment: Inhibition of human BLK assessed as percent of control at 2000 nM by KINOMEscan assay relative to control; parameters: scale not given: the % may be the effect or the level left
[19] = molecular target: Serine/threonine-protein kinase pim-1 (Homo sapiens) (UniProt P11309); experiment: Inhibition of human PIM1 assessed as percent of control at 2000 nM by KINOMEscan assay relative to control; parameters: scale not given: the % may be the effect or the level left
Serine/threonine-protein kinase pim-1 (Homo sapiens), sequence (P11309 whole entry, looked up): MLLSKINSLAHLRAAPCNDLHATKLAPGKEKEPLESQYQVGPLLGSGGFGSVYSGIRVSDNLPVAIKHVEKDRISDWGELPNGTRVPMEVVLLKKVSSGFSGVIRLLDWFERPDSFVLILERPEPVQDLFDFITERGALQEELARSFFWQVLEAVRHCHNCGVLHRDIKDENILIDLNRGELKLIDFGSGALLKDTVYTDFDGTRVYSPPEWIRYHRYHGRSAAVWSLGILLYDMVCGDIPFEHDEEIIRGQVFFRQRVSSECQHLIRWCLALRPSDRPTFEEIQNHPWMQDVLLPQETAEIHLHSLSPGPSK

[20] = molecular target: Ribosomal protein S6 kinase beta-1 (Homo sapiens) (UniProt P23443); experiment: Inhibition of human S6K1 assessed as percent of control at 2000 nM by KINOMEscan assay relative to control; parameters: scale not given: the % may be the effect or the level left
Ribosomal protein S6 kinase beta-1 (Homo sapiens), sequence (P23443 whole entry, looked up): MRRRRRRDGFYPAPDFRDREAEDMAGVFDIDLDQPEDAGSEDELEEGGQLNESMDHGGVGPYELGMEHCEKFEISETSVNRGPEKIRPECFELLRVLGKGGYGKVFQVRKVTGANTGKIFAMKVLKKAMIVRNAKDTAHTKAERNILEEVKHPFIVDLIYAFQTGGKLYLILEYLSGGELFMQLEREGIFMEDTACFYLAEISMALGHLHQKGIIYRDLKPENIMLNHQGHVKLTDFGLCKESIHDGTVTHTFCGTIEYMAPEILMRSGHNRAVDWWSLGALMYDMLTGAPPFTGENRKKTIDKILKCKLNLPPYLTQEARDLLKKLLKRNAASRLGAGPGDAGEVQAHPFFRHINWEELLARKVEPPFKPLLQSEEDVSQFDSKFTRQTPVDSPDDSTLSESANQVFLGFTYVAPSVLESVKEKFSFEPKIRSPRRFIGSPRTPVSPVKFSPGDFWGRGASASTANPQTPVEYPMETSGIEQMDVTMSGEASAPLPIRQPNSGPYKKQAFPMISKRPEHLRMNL

[21] = molecular target: Tyrosine-protein kinase Mer (Homo sapiens) (UniProt Q12866); experiment: Inhibition of human MERTK assessed as percent of control at 2000 nM by KINOMEscan assay relative to control; parameters: scale not given: the % may be the effect or the level left
[22] = molecular target: TRAF2 and NCK-interacting protein kinase (Homo sapiens) (UniProt Q9UKE5); experiment: Inhibition of human TNIK assessed as percent of control at 2000 nM by KINOMEscan assay relative to control; parameters: scale not given: the % may be the effect or the level left
[23] = molecular target: Receptor-interacting serine/threonine-protein kinase 1 (Homo sapiens) (UniProt Q13546); experiment: Inhibition of human RIPK1 assessed as percent of control at 2000 nM by KINOMEscan assay relative to control; parameters: scale not given: the % may be the effect or the level left
[24] = molecular target: cAMP-dependent protein kinase catalytic subunit PRKX (Homo sapiens) (UniProt P51817); experiment: Inhibition of human PRKX assessed as percent of control at 2000 nM by KINOMEscan assay relative to control; parameters: scale not given: the % may be the effect or the level left
[25] = tested on: Epidermal growth factor receptor (Homo sapiens), P00533 [UNDEFINED MUTATION]; experiment: Inhibition of human EGFR E746-A750del mutant assessed as percent of control at 2000 nM by KINOMEscan assay relative to control; parameters: scale not given: the % may be the effect or the level left
[26] = molecular target: Glycogen synthase kinase-3 alpha (Homo sapiens) (UniProt P49840); conditions: INHIBITOR, dose 2000.0 nM
Description: Inhibition of human GSK3A at 2000 nM by KINOMEscan assay

[27] = tested on: Phosphatidylinositol 4,5-bisphosphate 3-kinase catalytic subunit alpha isoform (Homo sapiens), P42336 [E545K]; experiment: Inhibition of human PIK3CA E545K mutant assessed as percent of control at 2000 nM by KINOMEscan assay relative to control; parameters: scale not given: the % may be the effect or the level left
[28] = molecular target: Serine/threonine-protein kinase ULK2 (Homo sapiens) (UniProt Q8IYT8); experiment: Inhibition of human ULK2 assessed as percent of control at 2000 nM by KINOMEscan assay relative to control; parameters: scale not given: the % may be the effect or the level left
[29] = tested on: Proto-oncogene tyrosine-protein kinase receptor Ret (Homo sapiens), P07949 [V804M]; experiment: Inhibition of human RET V804M mutant assessed as percent of control at 2000 nM by KINOMEscan assay relative to control; parameters: scale not given: the % may be the effect or the level left
Proto-oncogene tyrosine-protein kinase receptor Ret (Homo sapiens), P07949 [V804M], sequence (P07949 whole entry V804M): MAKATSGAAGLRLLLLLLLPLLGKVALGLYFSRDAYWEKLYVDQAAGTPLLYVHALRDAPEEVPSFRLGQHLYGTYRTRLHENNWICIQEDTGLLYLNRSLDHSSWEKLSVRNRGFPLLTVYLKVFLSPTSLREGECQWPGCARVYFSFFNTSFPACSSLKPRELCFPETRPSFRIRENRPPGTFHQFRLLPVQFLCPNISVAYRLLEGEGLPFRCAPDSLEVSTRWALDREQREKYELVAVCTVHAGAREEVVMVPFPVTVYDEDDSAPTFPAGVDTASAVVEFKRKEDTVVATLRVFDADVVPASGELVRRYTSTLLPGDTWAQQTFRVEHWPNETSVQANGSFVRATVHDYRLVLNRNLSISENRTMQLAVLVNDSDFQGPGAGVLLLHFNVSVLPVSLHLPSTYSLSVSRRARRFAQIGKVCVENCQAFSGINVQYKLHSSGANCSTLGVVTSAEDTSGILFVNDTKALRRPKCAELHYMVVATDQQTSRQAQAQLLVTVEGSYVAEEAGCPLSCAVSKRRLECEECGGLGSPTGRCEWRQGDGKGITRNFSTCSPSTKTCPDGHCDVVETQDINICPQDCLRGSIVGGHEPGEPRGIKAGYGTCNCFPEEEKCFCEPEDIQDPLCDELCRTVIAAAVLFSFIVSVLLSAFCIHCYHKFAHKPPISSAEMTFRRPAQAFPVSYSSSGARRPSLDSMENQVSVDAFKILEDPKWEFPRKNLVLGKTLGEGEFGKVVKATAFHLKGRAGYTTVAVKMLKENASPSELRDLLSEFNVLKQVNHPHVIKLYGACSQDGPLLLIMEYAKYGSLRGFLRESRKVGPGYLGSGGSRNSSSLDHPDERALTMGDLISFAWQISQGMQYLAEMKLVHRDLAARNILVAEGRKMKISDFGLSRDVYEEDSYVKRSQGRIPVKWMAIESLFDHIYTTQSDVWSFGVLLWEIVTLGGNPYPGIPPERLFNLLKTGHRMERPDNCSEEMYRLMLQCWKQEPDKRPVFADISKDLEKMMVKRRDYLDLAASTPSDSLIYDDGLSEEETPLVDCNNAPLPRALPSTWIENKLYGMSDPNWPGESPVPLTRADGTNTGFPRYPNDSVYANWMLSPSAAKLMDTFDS

[30] = molecular target: ALK tyrosine kinase receptor (Homo sapiens) (UniProt Q9UM73); experiment: Inhibition of human ALK assessed as percent of control at 2000 nM by KINOMEscan assay relative to control; parameters: scale not given: the % may be the effect or the level left

SMILES: CN(C)C(=O)c1ccc(N2CCCN(c3ccnc4sc(C(N)=O)c(N)c34)CC2)cc1
- Activity [1]: 100%
- Activity [2]: 66% and 72%
- Activity [3]: 90% and 96%
- Activity [4]: 97% and 84%
- Activity [5]: 57% and 82%
- Activity [6]: 100%
- Activity [7]: 88% and 70%
- Activity [8]: 90% and 86%
- Activity [9]: 89%
- EC200 [10]: 31.9 nM
- Activity [11]: 72% and 77%
- Activity [12]: 93% and 100%
- Activity (Myc-CaP): Active
- Activity [13]: 100% and 97%
- Activity [14]: 75% and 85%
- Activity [15]: 100% and 96%
- Activity [16]: 96% and 95%
- Activity [17]: 86% and 96%
- Activity [18]: 100% and 92%
- Activity [19]: 88% and 100%
- Activity [20]: 95% and 89%
- Activity [21]: 89% and 100%
- Activity [22]: 100% and 91%
- Activity [23]: 99% and 100%
- Activity [24]: 94% and 95%
- Activity [25]: 100%
- inhibition [26]: > 65%
- Activity [27]: 96% and 91%
- Activity [28]: 90% and 83%
- Activity [29]: 100%
- Activity [30]: 81% and 78%
